Measurements: patent US12479818B2, “Treatment of fibrosis with IRE1 small molecule inhibitors” (Cornell University, priority 2019, dated 2025)

Biological target: IRE1a (Homo sapiens, UniProt O75460)
Test: IRE1a Endoribonuclease Nanoluciferase Assay (XBP1 luciferase reporter in 293T cells)
Format: cell-based
Parameters: endogenous in cells; host or cells: 293T
Conditions: XBP1 nanoluciferase reporter in 293T cells, ER stressor; tested as the salt named
Experimental: Compounds disclosed herein were assessed for disruption of IRE1 signaling using a IRE1a Endoribonuclease Nanoluciferase Assay. […] About 24 hours later, the cells were transfected with Effectene. In a 15 mL tube, the following was added: 2 ug XBP1 luciferase reporter plasmid (PGK-Luc2-P2A-XBP1u-Nanoluciferase-PEST); 300 ul EC buffer; and 16 ul Enhancer, followed by incubation at room temp for 5 minutes. […] 2.6 mL cDMEM media was added. Old media was aspirated from the cells, followed by addition of 7 mL fresh media. Full transfection mixture was added dropwise to cells. Cells were incubated for 6 hours, followed by trypsinization, centrifugation and resuspension in 11 mL fresh cDMEM media. 100 μL of cells were plated per a well in a 96 well plate. A day later, ER stressors of choice +/− inhibitors were added. To harvest, media was aspirated from cells completely, then 50 uL 1× passive lysis buffer (Promega: E1941) was added per well and put on shaker (300 rpm) for 30 minutes at room temperature. […] 15 uL OneGlo (nanoluciferase kit, Promega N1630) was added. Plates were spun down, placed on shaker (300 rpm) for 10 minutes. Plates were read on luminometer, 1000 ms integration time per well. 15 uL Stop and Glo (nanoluciferase kit) was added. Plates were spun down, placed on shaker (300 rpm) for 10 minutes. Plates were read on luminometer, 1000 ms second integration time per well.

IRE1a, sequence (O75460 19-977): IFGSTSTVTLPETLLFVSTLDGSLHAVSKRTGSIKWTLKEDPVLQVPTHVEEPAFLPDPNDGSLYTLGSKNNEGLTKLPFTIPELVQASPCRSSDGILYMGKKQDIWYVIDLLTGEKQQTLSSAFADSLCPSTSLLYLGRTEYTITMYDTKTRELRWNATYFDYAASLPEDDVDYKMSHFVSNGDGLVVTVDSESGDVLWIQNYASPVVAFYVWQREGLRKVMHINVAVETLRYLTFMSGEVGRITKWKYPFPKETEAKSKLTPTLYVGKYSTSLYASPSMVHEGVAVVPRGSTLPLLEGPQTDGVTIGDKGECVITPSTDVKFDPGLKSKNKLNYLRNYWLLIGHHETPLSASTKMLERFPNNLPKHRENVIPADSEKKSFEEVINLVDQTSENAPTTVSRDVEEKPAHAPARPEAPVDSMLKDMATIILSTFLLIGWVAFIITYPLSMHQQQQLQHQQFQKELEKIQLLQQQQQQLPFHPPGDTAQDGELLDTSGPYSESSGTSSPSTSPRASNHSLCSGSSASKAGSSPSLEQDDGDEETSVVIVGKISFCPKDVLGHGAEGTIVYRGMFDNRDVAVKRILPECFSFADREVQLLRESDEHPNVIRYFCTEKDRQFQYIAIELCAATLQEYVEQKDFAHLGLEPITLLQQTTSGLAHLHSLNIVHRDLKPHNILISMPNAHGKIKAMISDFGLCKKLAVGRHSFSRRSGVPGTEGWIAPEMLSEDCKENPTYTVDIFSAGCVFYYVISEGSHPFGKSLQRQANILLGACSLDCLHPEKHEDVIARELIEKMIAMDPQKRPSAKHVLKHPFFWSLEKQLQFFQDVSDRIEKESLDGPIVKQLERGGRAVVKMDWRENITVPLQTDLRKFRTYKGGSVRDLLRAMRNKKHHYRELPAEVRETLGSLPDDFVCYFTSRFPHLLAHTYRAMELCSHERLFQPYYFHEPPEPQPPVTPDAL

Row | Structure (SMILES) | EC50 [nM]
1 | CCc1cc(-c2ccc(NS(=O)(=O)c3ccccc3C)nc2OC)cc2cnc(NC3CCC(NC)CC3)nc12 (centres unmarked) [Compound 118, N-(5-(8-ethyl-2-(((1r,4r)-4-(methylamino)cyclohexyl)amino)quinazolin-6-yl)-6-methoxypyridin-2-yl)-2-methylbenzenesulfonamide] | < 5
2 | Cc1nc(NS(=O)(=O)c2ccccc2Cl)ncc1-c1ccc2nc(N[C@H]3CC[C@H](N)CC3)ncc2c1 [Compound 68, N-(5-(2-(((1r,4r)-4-aminocyclohexyl)amino)quinazolin-6-yl)-4-methylpyrimidin-2-yl)-2-chlorobenzene-sulfonamide] | 50 to 100
3 | CCc1cc(-c2cnc(NS(=O)(=O)c3ccccc3Cl)nc2OC)cc2cnc(NC3CCC(N(C)C)CC3)nc12 (centres unmarked) [Compound 154, 2-chloro-N-(5-(2-(((1r,4r)-4-(dimethylamino)cyclohexyl)amino)-8-ethylquinazolin-6-yl)-4-methoxypyrimidin-2-yl)benzenesulfonamide] | < 5
4 | CCc1cc(-c2nnc(NS(=O)(=O)c3ccccc3Cl)cc2OC)cc2cnc(N[C@H]3CC[C@H](N)CC3)nc12 [Compound 65, N-(6--(2-(((lr,4r)-4-aminocyclohexyl)amino)-8-ethylquinazolin-6-yl)-5-methoxypyridazin-3-yl)-2-chlorobenzene-sulfonamide] | 5 to 50
5 | Cc1nc(NS(=O)(=O)c2ccccc2Cl)ccc1-c1cc(C(C)(F)F)c2nc(N[C@H]3CC[C@H](N(C)C)CC3)ncc2c1 [Compound 131, 2-chloro-N-(5-(8-(1,1-difluoroethyl)-2-(((1r,4r)-4-(dimethylamino)cyclohexyl)amino)quinazolin-6-yl)-6-methylpyridin-2-yl)benzenesulfonamide] | < 5
6 | CCCc1cc(-c2cc(NS(=O)(=O)c3ccccc3Cl)nn2C)cc2cnc(N[C@H]3CC[C@H](N)CC3)nc12 [Compound 47, N-(5-(2-(((1r,4r)-4-aminocyclohexyl)amino)-8-propylquinazolin-6-yl)-1-methyl-1H-pyrazol-3-yl)-2-chlorobenzene-sulfonamide] | 5 to 50
7 | CCc1cc(-c2ccc(NS(=O)(=O)c3ccccc3Cl)c(F)c2)cc2cnc(N[C@H]3CC[C@H](N4CCCC4)CC3)nc12 [Compound 88, 2-chloro-N-(4-(8-ethyl-2-(((lr,4r)-4-(pyrrolidin-1-yl)cyclohexyl)amino)quinazolin-6-yl)-2-fluorophenyl) benzene-sulfonamide] | < 5
8 | CCc1cc(-c2nnc(NS(=O)(=O)c3ccccc3Cl)cc2C)cc2cnc(N[C@H]3CC[C@H](N)CC3)nc12 [Compound 67, N-(6-(2-(((lr,4r)-4-aminocyclohexyl)amino)-8-ethylquinazolin-6-yl)-5-methylpyridazin-3-yl)-2-chlorobenzene-sulfonamide] | 5 to 50
9 | O=S(=O)(Nc1ccc(-c2ccc3nc(N[C@H]4CCCNC4)ncc3c2)cc1F)c1ccccc1Cl [Compound 76, (S)-2-chloro-N-(2-fluoro-4-(2-(piperidin-3-ylamino)quinazolin-6-yl)phenyl) benzene-sulfonamide] | 5 to 50
10 | CCc1cc(-c2ccc(NS(=O)(=O)c3ccccc3Cl)c(F)c2C)cc2cnc(N[C@H]3CC[C@H](N)CC3)nc12 [Compound 71, N-(4-(2-(((1r,4r)-4-aminocyclohexyl)amino)-8-ethylquinazolin-6-yl)-2-flouro-3-methylphenyl)-2-chlorobenzene-sulfonamide] | < 5
11 | N[C@H]1CC2C[C@@H](Nc3ncc4cc(-c5ccc(NS(=O)(=O)c6ccccc6Cl)c(F)c5)ccc4n3)CC2C1 (some centres unmarked) [Compound 85, N-(4-(2-(((2s,5s)-5-aminoocta-hydropentalen-2-yl)amino)quinazolin-6-yl)-2-fluorophenyl)-2-chlorobenzene-sulfonamide] | 100 to 10000
12 | COc1nc(NS(=O)(=O)c2ccccc2Cl)ccc1-c1cc(C)c2nc(N[C@H]3CC[C@H](N(C)C)CC3)ncc2c1 [Compound 133, 2-chloro-N-(5-(2-(((1r,4r)-4-(dimethylamino)cyclohexyl)amino)-8-methylquinazolin-6-yl)-6-methoxypyridin-2-yl)benzenesulfonamide] | < 5
13 | CCc1cc(-c2cnc(NS(=O)(=O)c3ccccc3Cl)c(F)c2)cc2cnc(N[C@H]3CC[C@H](N)CC3)nc12 [Compound 55, N-(5-(2-(((1r,4r)-4-aminocyclohexyl)amino)-8-ethylquinazolin-6-yl)-3-fluoropyridin-2-yl)-2-chlorobenzene-sulfonamide] | < 5
14 | CCc1cc(-c2cnc(NS(=O)(=O)c3ccccc3Cl)nc2C)cc2cnc(N[C@H]3CC[C@H](N)CC3)nc12 [Compound 23, N-(5-(2-(((1r,4r)-, 4-aminocyelohexyl)amino)-8-ethylquinazolin-6-yl)-4-methylpyrimidin-2-yl)-2-ehlorobenzene-sulfonamide] | < 5
15 | Cc1cc2nc(N[C@H]3CC[C@H](N)CC3)ncc2cc1-c1ccc(NS(=O)(=O)c2ccccc2Cl)c(F)c1 [Compound 90, N-(4-(2-(((1r,4r)-4-aminocyclohexyl)amino)-7-methylquinazolin-6-yl)-2-fluorophenyl)-2-chlorobenzene-sulfonamide] | 5 to 50
16 | CCc1cc(-c2ccc(NS(=O)(=O)c3ccccc3Cl)nn2)cc2cnc(N[C@H]3CC[C@H](N(C)C)CC3)nc12 [Compound 64, 2-chloro-N-(6-(2-(((1r,4r)-4-(dimethylamino)cyclohexyl)amino)-8-ethylquinazolin-6-yl)pyridazin-3-yl)benzene-sulfonamide] | < 5
17 | COc1nc(NS(=O)(=O)c2ccccc2Cl)ccc1-c1cc(C(C)(F)F)c2nc(N[C@H]3CC[C@H](N(C)C)CC3)ncc2c1 [Compound 124, 2-chloro-N-(5-(8-(1,1-difluoroethyl)-2-(((1r,4r)-4-(dimethylamino)cyclohexyl)amino)quinazolin-6-yl)-6-methoxypyridin-2-yl)benzenesulfonamide] | < 5
18 | N[C@H]1CC[C@H](Nc2ncc3cc(-c4c(F)cc(NS(=O)(=O)c5ccccc5Cl)cc4F)ccc3n2)CC1 [Compound 62, N-(4-(2-(((1r,4r)-4-aminocyclohexyl)amino)quinazolin-6-yl)-3,5-difluorophenyl)-2-chlorobenzene-sulfonamide] | 5 to 50
19 | COCc1cc(-c2ccc(NS(=O)(=O)c3ccccc3Cl)nc2OC)cc2cnc(N[C@H]3CC[C@H](N(C)C)CC3)nc12 [Compound 137, 2-chloro-N-(5-(2-(((1r,4r)-4-(dimethylamino)cyclohexyl)amino)-8-(methoxymethyl)quinazolin-6-yl)-6-methoxypyridin-2-yl)benzenesulfonamide] | < 5
20 | N[C@H]1CC[C@H](Nc2ncc3cc(-c4ccc(NS(=O)(=O)c5ccccc5Cl)cc4F)ccc3n2)CC1 [Compound 48, N-(4-(2-(((1r,4r)-4-aminocyclohexyl)amino)quinazolin-6-yl)-3-fluorophenyl)-2-chlorobenzene-sulfonamide] | 5 to 50
21 | Cc1nc(NS(=O)(=O)c2ccccc2Cl)c(F)cc1-c1ccc2nc(N[C@H]3CC[C@H](N(C)C)CC3)ncc2c1 [Compound 153, 2-chloro-N-(5-(2-(((1r,4r)-4-(dimethylamino)cyclohexyl)amino)quinazolin-6-yl)-3-fluoro-6-methylpyridin-2-yl)benzenesulfonamide] | 5 to 50
22 | CCc1cc(-c2ccc(NS(=O)(=O)c3ccccc3Cl)c(F)c2)cc2cnc(N[C@H]3CC4C[C@H](N)CC4C3)nc12 (some centres unmarked) [Compound 83, N-(4-(2-(((2r,5r)-5-aminoocta-hydropentalen-2-yl)amino)-8-ethylquinazolin-6-yl)-2-fluorophenyl)-2-chlorobenzene-sulfonamide] | 50 to 100
23 | CN[C@H]1CC[C@H](Nc2ncc3cc(-c4cc(F)c(NS(=O)(=O)c5ccccc5Cl)nc4OC)ccc3n2)CC1 [Compound 150, 2-chloro-N-(3-fluoro-6-methoxy-5-(2-(((1r,4r)-4-(methylamino)cyclohexyl)amino)quinazolin-6-yl)pyridin-2-yl)benzenesulfonamide] | 5 to 50
24 | CCc1cc(-c2ccc(NS(=O)(=O)c3ccccc3C)nc2OC)cc2cnc(N[C@H]3CC[C@H](N(C)C)CC3)nc12 [Compound 119, N-(5-(2-(((1r,4r)-4-(dimethylamino)cyclohexyl)amino)-8-ethylquinazolin-6-yl)-6-methoxypyridin-2-yl)-2-methylbenzenesulfonamide] | < 5
25 | CCc1cc(-c2nnc(NS(=O)(=O)c3ccccc3Cl)cc2OC)cc2cnc(N[C@H]3CC[C@H](N(C)C)CC3)nc12 [Compound 159, 2-chloro-N-(6-(2-(((1r,4r)-4-(dimethylamino)cyclohexyl)amino)-8-ethylquinazolin-6-yl)-5-methoxypyridazin-3-yl)benzenesulfonamide] | 5 to 50
26 | CCc1cc(-c2ccc(NS(=O)(=O)c3cccc(Cl)c3Cl)nc2C)cc2cnc(N[C@H]3CC[C@H](N(C)C)CC3)nc12 [Compound 152, 2,3-dichloro-N-(5-(2-(((1r,4r)-4-(dimethylamino)cyclohexyl)amino)-8-ethylquinazolin-6-yl)-6-methylpyridin-2-yl)benzenesulfonamide] | < 5
